Data as given in patent US7972611B2, “Fungus-induced inflammation and eosinophil degranulation” (Mayo Foundation for Medical Education and Research, priority 2005, dated 2011).
Starred links: 1 amine or outer side, 2 acyl side, 3 side chain; linkers in the order of their positions; H or OH if unused. Residues, ends and D or L forms follow the SMILES beside them. CO = O=C([*:1])[*:2]

B1: Calpastatin (protein, UniProt P20810 1-708, looked up)
Calpastatin: MNPTETKAIPVSQQMEGPHLPNKKKHKKQAVKTEPEKKSQSTKLSVVHEKKSQEGKPKEHTEPKSLPKQASDTGSNDAHNKKAVSRSAEQQPSEKSTEPKTKPQDMISAGGESVAGITAISGKPGDKKKEKKSLTPAVPVESKPDKPSGKSGMDAALDDLIDTLGGPEETEEENTTYTGPEVSDPMSSTYIEELGKREVTIPPKYRELLAKKEGITGPPADSSKPIGPDDAIDALSSDFTCGSPTAAGKKTEKEESTEVLKAQSAGTVRSAAPPQEKKRKVEKDTMSDQALEALSASLGTRQAEPELDLRSIKEVDEAKAKEEKLEKCGEDDETIPSEYRLKPATDKDGKPLLPEPEEKPKPRSESELIDELSEDFDRSECKEKPSKPTEKTEESKAAAPAPVSEAVCRTSMCSIQSAPPEPATLKGTVPDDAVEALADSLGKKEADPEDGKPVMDKVKEKAKEEDREKLGEKEETIPPDYRLEEVKDKDGKPLLPKESKEQLPPMSEDFLLDALSEDFSGPQNASSLKFEDAKLAAAISEVVSQTPASTTQAGAPPRDTSQSDKDLDDALDKLSDSLGQRQPDPDENKPMEDKVKEKAKAEHRDKLGERDDTIPPEYRHLLDDNGQDKPVKPPTKKSEDSKKPADDQDPIDALSGDLDSCPSTTETSQNTAKDKCKKAASSSKAPKNGGKAKDSAKTTEETSKPKDD
B2: SEQ ID NO:2: polypeptide of SEQ ID NO:2, Alternaria alternata endoxylanase, recombinantly produced in E. coli (protein, listed as Alternaria brassicicola)
chain: MHFRGSSIYFGIVALSSTSAVLGAVAPYGQCGGNGFQGETECAQGWSCVKSNDWYSQCINGGGNAPAPPAATGVAPAPVIPSAAPVPSMNASEPVAAPVAVAQPAATGGANGSAPDVAGTGANGAKCSLDAAFKSHGKKYIGVATDQGALSKGKNKEIIVANFGQVTPENSMKWDATEGTEGKFTLDGANALVSFATENKKLVRGHTTVWHSQLPTWVSSITDKTKLEEVMVAHIKKLMSTYAGKVYAWDVVNEIFNEDGSFRSSVFYNVLGENFVATAFATAKAADPEAKLYINDYNLDSPSYAKTKAMASNVKKWVAAGVPIDGIGSQSHLSGSWPISDYPAALKLLCESASECAMTELDIKGGAAADYKTAVTACLDVENCVGVTVWGVSDTDSWIGAAATPLLFDGSFQAKESYNGLCSALA
B3: papain: cysteine protease (protein, UniProt P00784 134-345, looked up)
Papain: IPEYVDWRQKGAVTPVKNQGSCGSCWAFSAVVTIEGIIKIRTGNLNEYSEQELLDCDRRSYGCNGGYPWSALQLVAQYGIHYRNTYPYEGVQRYCRSREKGPYAAKTDGVRQVQPYNEGALLYSIANQPVSVVLEAAGKDFQLYRGGIFVGPCGNKVDHAVAAVGYGPNYILIKNSWGTGWGENGYIRIKRGTGNSYGVCGLYTSSFYPVKN
B4: Der f1: natural mite allergen protease (protein, UniProt P16311 99-321, looked up)
Peptidase 1: TSACRINSVNVPSELDLRSLRTVTPIRMQGGCGSCWAFSGVAATESAYLAYRNTSLDLSEQELVDCASQHGCHGDTIPRGIEYIQQNGVVEERSYPYVAREQRCRRPNSQHYGISNYCQIYPPDVKQIREALTQTHTAIAVIIGIKDLRAFQHYDGRTIIQHDNGYQPNYHAVNIVGYGSTQGDDYWIVRNSWDTTWGDSGYGYFQAGNNLMMIEQYPYVVIM

These molecules were tested on eosinophils (assay: not given). Conditions: not given.
Assay type: cell-based, human
Method: FIG. 9. […] Alternaria extract, trypsin, or PMA was pretreated with pepstatin A agarose, control agarose, or APMSF, and added to the PAR-2 peptide substrate (Panel A) or eosinophils (Panel B).
(§1) To monitor eosinophil function in response to extracts from Alternaria, degranulation of human eosinophils was measured by quantitating released eosinophil-derived neurotoxin (EDN) and/or MBP. In brief, freshly isolated eosinophils were suspended in HBSS with 25 mM HEPES and 0.01% gelatin at 5×10^5 cells/mL. Eosinophils and stimuli were incubated in 96-well tissue culture plates for 3 hours at 37° C. and 5% CO^2. Cell-free supernatants were stored at −20° C. A specific RIA quantitated eosinophil degranulation by measuring the concentration of EDN in the supernatants.

Molecule | eosinophil degranulation (EDN release) induced by Alternaria extract | Alternaria-induced eosinophil [Ca2+]i response and degranulation, sensitivity to pertussis toxin
O=C(O)CN(CCN(CC(=O)O)CC(=O)O)CC(=O)O [EDTA] | inhibited | –
pertussis toxin | – | sensitive

Same assay, conditions: 3 hours at 37° C.

Molecule | eosinophil degranulation (EDN release) induced by Alternaria extract
CC(C)[C@H](NC(=O)[C@H](CCCNC(=N)N)NC(=O)N[C@@H](Cc1ccccc1)C(=O)O)C(=O)N[C@H](C=O)CCCNC(=N)N [Antipain] ({Phe-CO}-Arg-Val-Arg-aldehyde) | did not inhibit
CC(C)C[C@H](NC(=O)[C@@H](O)[C@H](N)Cc1ccccc1)C(=O)O [Bestatin] | did not inhibit
CCCCCCCCCCCCCCCCCCNC(=O)OCC(COC(=O)N(Cc1cccc[n+]1CC)C(C)=O)OC (stereo not shown) [CV6209] | inhibited
CCN(CC)CCCC(C)Nc1ccnc2cc(Cl)ccc12 (stereo not shown) [Chloroquine] | did not inhibit
CC(C)C[C@H](NC(=O)[C@@H](NC(=O)N[C@@H](Cc1ccccc1)C(=O)O)[C@@H]1CCN=C(N)N1)C(=O)N[C@H](C=O)Cc1ccccc1 [Chymostatin] | did not inhibit
COc1cc2c(c(OC)c1OC)-c1ccc(OC)c(=O)cc1[C@@H](NC(C)=O)CC2 [Colchitin] | did not inhibit
C=C1[C@@H](C)[C@H]2[C@H](Cc3ccccc3)NC(=O)[C@]23OC(=O)/C=C/[C@H](O)CCC[C@@H](C)C/C=C/[C@H]3[C@@H]1O [Cytochalasin B] | did not inhibit
CC(C)C[C@H](NC(=O)[C@H]1O[C@@H]1C(=O)O)C(=O)NCCCCN=C(N)N [E64] | did not inhibit
O=C(O)CN(CCOCCOCCN(CC(=O)O)CC(=O)O)CC(=O)O [EGTA] | inhibited
C=CC[C@@H]1/C=C(\C)C[C@H](C)C[C@H](OC)[C@H]2O[C@@](O)(C(=O)C(=O)N3CCCC[C@H]3C(=O)O[C@H](/C(C)=C/[C@@H]3CC[C@@H](O)[C@H](OC)C3)[C@H](C)[C@@H](O)CC1=O)[C@H](C)C[C@@H]2OC [FK 506] | did not inhibit
CN(C)CCCn1cc(C2=C(c3c[nH]c4ccccc34)C(=O)NC2=O)c2ccccc21 [GF109203X] | did not inhibit
O=c1c(-c2ccc(O)cc2)coc2cc(O)cc(O)c12 [Genistein] | did not inhibit
[La] [Lanthunum] | inhibited
CC(=O)N[C@@H](CC(C)C)C(=O)N[C@@H](CC(C)C)C(=O)N[C@H](C=O)CCCNC(=N)N [Leupeptin] | did not inhibit
COc1cccc(-c2cc(=O)c3ccccc3o2)c1N [PD98059] | did not inhibit
Cl.NCCc1ccc(S(=O)(=O)F)cc1 [Pefabloc SC] | did not inhibit
CC(C)C[C@H](NP(=O)(O)O[C@@H]1O[C@@H](C)[C@H](O)[C@@H](O)[C@H]1O)C(=O)N[C@@H](Cc1c[nH]c2ccccc12)C(=O)O [Phosphoramidon] | did not inhibit
Cn1cc(C2=C(c3cn(CCCSC(=N)N)c4ccccc34)C(=O)NC2=O)c2ccccc21 [Ro-31-8220] | did not inhibit
CC(=O)c1c(O)c(C)c(O)c(Cc2c(O)c3c(c(C(=O)/C=C/c4ccccc4)c2O)OC(C)(C)C=C3)c1O [Rottelrin] | did not inhibit
C[S+]([O-])c1ccc(-c2nc(-c3ccncc3)c(-c3ccc(F)cc3)[nH]2)cc1 (stereo not shown) [SB203580] | did not inhibit
Cc1ccc(S(=O)(=O)N[C@@H](CCCCN)C(=O)CCl)cc1 [TLCK] | did not inhibit
NCCCCCCNS(=O)(=O)c1cccc2c(Cl)cccc12 [W-7] | did not inhibit
COC[C@H]1OC(=O)c2coc3c2[C@@]1(C)C1=C(C3=O)[C@@H]2CCC(=O)[C@@]2(C)C[C@H]1OC(C)=O [Wortmannin] | did not inhibit
Aprotinin | did not inhibit
Jasplakinlide | inhibited
heparin | inhibited
B1 | did not inhibit

Each molecule was assayed on human eosinophils (assay: Eosinophil degranulation (EDN release) and activation by fungal extracts and proteins). Conditions: eosinophils incubated with stimulus.
Assay type: cell-based
Method: FIG. 5. Effects of fungi on eosinophil degranulation. Eosinophils were incubated with culture extracts of various fungi for 3 hours.
FIG. 21. Effects of Trichoderma xylanase on eosinophil degranulation (Panel A). Effects of Trichoderma xylanase on IL-5 production in mouse airways (Panel B). Panel A: Eosinophils were incubated with various concentrations of Trichoderma xylanase for 3 hours. EDN concentrations in the supernatants were measured by RIA as an indicator of degranulation. Panel B: Naive BALB/c mice were exposed intranasally to various doses of Trichoderma xylanase. After 12 hours, BAL fluids were collected and the concentrations of IL-5 were measured by ELISA. Mean±range, n=2.
FIG. 25. Partial characterization of Alternaria extract. A, Before incubation with eosinophils, aliquots of 100 μg/mL Alternaria and 10 ng/mL IL-5 were heated at 37, 56, or 100° C. for 30 min or were treated at 4° C. for 30 min. Eosinophils were incubated in duplicate with these treated stimuli for 3 hours at 37° C. […] The molecular weight calibration of the column is shown above the elution profile.
The following was performed to determine whether human eosinophils have an innate capacity to respond to environmental fungal organisms. Human eosinophils were incubated with extracts from common environmental airborne fungi.
as §1

Molecule | eosinophil degranulation (EDN release)
B2 | stimulated eosinophil degranulation

Same assay, conditions: through PAR-2

Molecule | activation of human eosinophils by proteases
B3 | activated
B4 | activated

Same assay, conditions: treatment at 56° C. or lower temperatures

Molecule | loss of activity to induce EDN release after treatment
IL-5: cytokine | not

Same assay, conditions: treatment at 100° C.

Molecule | activity to induce EDN release after heat treatment
IL-5: cytokine | abolished
